The subject of one test is Phytophthora infestans. Put plainly: whole plant or invertebrate. The format is in vivo. The conditions noted are these: Phytophthora infestans, in Solanum lycopersicum, read-out: TLB control value (C.V.).
Another test concerns Botrytis cinerae. Briefly: Fungicidal activity against cucumber gray mold rot (CGM) disease, control value. Format: in vivo. Conditions: Botrytis, read-out: CGM control value (C.V.).
Test [1] concerns Pyricularia oryzae Carvara KA301. Briefly: whole plant or invertebrate. Conditions: Pyricularia oryzae, read-out: RCB control value (C.V.). The format is in vivo.
For a further test, the system named is Puccinia recondita. Put plainly: Fungicidal activity against wheat leaf rust (WLR) disease, control value. The format is in vivo. Conditions: Puccinia recondita, read-out: WLR control value (C.V.).
The subject of a further test is Erysiphae graminis. Put plainly: Fungicidal activity against barley powdery mildew (BPM) disease, control value. The conditions noted are these: 168 h, read-out: BPM control value (C.V.). The format is in vivo.
The test system of a further test is Rhizoctonia solani AG-1. Briefly: Fungicidal activity against rice sheath blight (RSB) disease, control value. The conditions noted are these: Rhizoctonia solani, AG1, in Oryza sativa, read-out: RSB control value (C.V.).

For the compound `CCOc1cc(C=C(Br)Br)ccc1OCc1ccccc1/C(=N\OC)C(=O)OC` [Example 83, methyl-(E)-2-(2-((4-(2,2-dibromovinyl)-2-ethoxyphenoxy)methyl)phenyl)-2-methoxyiminoacetate], the pest or weed control at 2 ppm in the test with Phytophthora infestans was found to be 70%; in test [1] it was 50%; in the test with Puccinia recondita, 95%; in the test with Erysiphae graminis, 95%; in the test on Rhizoctonia solani AG-1, 75%. The pest or weed control at 10 ppm came to 90% with Phytophthora infestans; 90% in test [1]; 100% with Puccinia recondita; 100% with Erysiphae graminis; 98% in the test with Rhizoctonia solani AG-1. The pest or weed control at 50 ppm with Phytophthora infestans was found to be 98%; in test [1], 100%; with Puccinia recondita, 100%; in the test with Erysiphae graminis, 100%; in the test with Rhizoctonia solani AG-1 it was 100%. In addition, the pest or weed control at 100 ppm with Phytophthora infestans amounted to 100%; in the test on Botrytis cinerae, 50%; in test [1], 100%; with Puccinia recondita, 100%; in the test on Erysiphae graminis, 100%; in the test on Rhizoctonia solani AG-1, 100%.
Turning to `CCOc1cc(C=C(Br)Br)ccc1OCc1ccccc1/C(=N\OC)C(=O)NC` [Example 84, (E)-2-(2-((4-(2,2-dibromovinyl)-2-ethoxyphenoxy)methyl)phenyl)-2-methoxyimino-N-methylacetamide], the pest or weed control at 2 ppm with Phytophthora infestans was determined as 70%; in test [1] it was 30%; in the test on Puccinia recondita, 95%; in the test with Erysiphae graminis it was 90%; in the test on Rhizoctonia solani AG-1, 55%. For the same compound, the pest or weed control at 10 ppm was 90% with Phytophthora infestans; 90% in test [1]; 100% with Puccinia recondita; 100% with Erysiphae graminis; 98% with Rhizoctonia solani AG-1. The pest or weed control at 50 ppm came to 98% in the test with Phytophthora infestans; 100% in test [1]; 100% with Puccinia recondita; 100% with Erysiphae graminis; 100% in the test on Rhizoctonia solani AG-1. Besides, the pest or weed control at 100 ppm in the test with Phytophthora infestans was determined as 100%; in the test on Botrytis cinerae, 70%; in test [1], 100%; with Puccinia recondita, 100%; with Erysiphae graminis it was 100%; in the test with Rhizoctonia solani AG-1 it was 100%.
Turning to `CO/N=C(/C(=O)OC)c1ccccc1COc1cc(Br)ccc1C=C(Br)Br` [Example 85, methyl-(E)-2-(2-((5-bromo-2-(2,2-dibromovinyl)phenoxy)methyl)phenyl)-2-methoxyiminoacetate], the pest or weed control at 10 ppm worked out at 20% in the test with Phytophthora infestans; 90% in test [1]; 99% in the test on Puccinia recondita; 70% in the test with Erysiphae graminis; 85% in the test on Rhizoctonia solani AG-1. Besides, the pest or weed control at 50 ppm turned out to be 100% with Phytophthora infestans; 100% in test [1]; 100% with Puccinia recondita; 97% in the test with Erysiphae graminis; 96% in the test with Rhizoctonia solani AG-1. Moreover, the pest or weed control at 100 ppm worked out at 100% with Phytophthora infestans; 35% in the test on Botrytis cinerae; 100% in test [1]; 100% with Puccinia recondita; 100% in the test with Erysiphae graminis; 99% in the test on Rhizoctonia solani AG-1. In addition, the pest or weed control at 2 ppm in test [1] was 70%; with Puccinia recondita it was 80%; in the test with Erysiphae graminis it was 25%; in the test on Rhizoctonia solani AG-1, 60%.
For `CNC(=O)/C(=N/OC)c1ccccc1COc1cc(Br)ccc1C=C(Br)Br` [Example 86, (E)-2-(2-((5-bromo-2-(2,2-dibromovinyl)phenoxy)methyl)phenyl)-2-methoxyimino-N-methylacetamide], the pest or weed control at 2 ppm with Phytophthora infestans was determined as 70%; in test [1] it was 30%; in the test on Puccinia recondita it was 95%; in the test on Erysiphae graminis, 90%; in the test with Rhizoctonia solani AG-1, 65%. In addition, the pest or weed control at 10 ppm in the test with Phytophthora infestans was 90%; in test [1] it was 90%; in the test with Puccinia recondita it was 100%; in the test on Erysiphae graminis it was 100%; in the test with Rhizoctonia solani AG-1, 98%. Further, the pest or weed control at 50 ppm with Phytophthora infestans was 98%; in test [1], 100%; with Puccinia recondita, 100%; with Erysiphae graminis, 100%; with Rhizoctonia solani AG-1, 100%. The pest or weed control at 100 ppm with Phytophthora infestans came out at 100%; in the test on Botrytis cinerae, 40%; in test [1] it was 100%; with Puccinia recondita, 100%; in the test with Erysiphae graminis it was 100%; with Rhizoctonia solani AG-1, 100%.
With `OC(c1ccc(Cl)cc1)(c1cncnc1)c1ccccc1Cl` (stereo not drawn) [Fenarimol, reference compound], the pest or weed control at 0.4 ppm with Phytophthora infestans is 65%; in the test on Botrytis cinerae (0.4 ppm), 7%; in the test with Puccinia recondita it was 15%; in the test on Erysiphae graminis, 95%; with Rhizoctonia solani AG-1, 30%. The pest or weed control at 2 ppm in the test with Phytophthora infestans turned out to be 75%; with Botrytis cinerae (2 ppm), 7%; with Puccinia recondita, 80%; with Erysiphae graminis it was 100%; in the test on Rhizoctonia solani AG-1, 40%. In addition, the pest or weed control at 10 ppm in the test with Phytophthora infestans amounted to 80%; in the test on Botrytis cinerae (10 ppm), 7%; in test [1], 0%; in the test with Puccinia recondita, 100%; in the test with Erysiphae graminis it was 100%; in the test on Rhizoctonia solani AG-1 it was 85%. Also, the pest or weed control at 50 ppm in the test on Phytophthora infestans was found to be 95%; in the test on Botrytis cinerae, 30%; in test [1] it was 20%; in the test with Puccinia recondita it was 100%; with Erysiphae graminis it was 100%; with Rhizoctonia solani AG-1 it was 100%.
Consider `CO/N=C(/C(=O)OC)c1ccccc1COc1ccccc1C` [Kresoxim-methyl, reference compound], for which the pest or weed control at 0.4 ppm was determined as 30% in the test with Phytophthora infestans; 30% in test [1]; 85% with Puccinia recondita; 95% with Erysiphae graminis; 67% in the test with Rhizoctonia solani AG-1. Also, the pest or weed control at 2 ppm is 80% with Phytophthora infestans; 60% in test [1]; 95% in the test on Puccinia recondita; 100% in the test with Erysiphae graminis; 90% in the test with Rhizoctonia solani AG-1. Also, the pest or weed control at 10 ppm with Phytophthora infestans turned out to be 95%; in test [1] it was 95%; in the test with Puccinia recondita it was 100%; with Erysiphae graminis, 100%; in the test with Rhizoctonia solani AG-1, 98%. Besides, the pest or weed control at 50 ppm with Phytophthora infestans is 100%; in the test on Botrytis cinerae it was 30%; in test [1] it was 100%; in the test on Puccinia recondita, 100%; in the test on Erysiphae graminis, 100%; with Rhizoctonia solani AG-1, 100%.

The record behind these values is patent US8410302B2, “Methoxyimino compounds and fungicide composition comprising same” (Kyung Nong Corporation, priority 2007, dated 2013).
